Entries after “also recorded” stand apart in the source; their conditions may differ.
What was measured:
maize callus cultures = conditions: added to nutrient medium for callus initiation; cited from earlier work
maize embryogenic callus = conditions: cited from earlier work
isolated embryos = conditions: micromolar concentration; wheat; cited from earlier work
wheat tussue culture = conditions: wheat tissue culture; cited from earlier work
tobacco leaf explants = assay: Callus formation (dedifferentiation) and root formation in tobacco leaf explants; assay type: cell-based; conditions: 0.6 μM SkQ1
Method: Effect of SkQ1 on callus formation (dedifferentiation) in tobacco leaf explants was investigated. Sterile leaf disks of plants Nicotiana tabacum cv Samsun were sliced with approximately 1 cm^2 size. The resulting explants were placed at standard MS medium for callus formation supplemented with phytohormones 0.5 mg/L 6-benzylaminopurine and 1 mg/L naphthylacetic acid. Test Petri plates were also supplemented with 0.6 μM SkQ1. Explants were cultivated in darkness for 5 weeks. During incubation callus was initially formed at wound explant surfaces.

rice seeds = assay: Germination of rice seeds under water (anaerobic conditions); assay type: in vivo
Method: Effect of SkQ1 on germination of rice seeds under water (under anaerobic conditions) was studied. SkQ1 was added to water at concentrations of 0, 1, 3, 10, 30 nM.

Lucerne calli = assay: Callus growth and regeneration ability of lucerne calli; assay type: cell-based
Method: (§1) In this work, calli and explants of tobacco, sugar cane, maize, lucerne, potato and tomatoes were used. Calli were incubated at Petri dishes containing agarized Murashige-Skoog medium with […] and 1 mg/L 2,4-dichlorophenoxyacetic acid. The cultivation was carried out at temperature 26° C., illumination intensity of 2 cd and the length of daylight of 16 hours. SkQ1 was added to autoclaved and cooled (up to 45° C.) nutrient medium immediately before callus planting. SkQ1 at concentrations of 0, 1.5, 5, 10, 20, 30 and 50 nM was used. Increase of callus green weight, a fraction of calli with shoots and roots and an average number of organs per a morphogenetic callus were taken into account after one month of cultivation.
Lucerne calli were cultivated for 1 month in the presence of different SkQ1 concentrations (0-10 nM). Effect of SkQ1 on callus growth (weight change) and regeneration ability (formation of calli with “green areas”) were assessed.

sugar cane calli [1] = assay: Survival of sugar cane calli after anaerobic stress; assay type: cell-based; conditions: 48 hours anoxic, then aerobic medium with 10 nM SkQ1
Method: Effect of SkQ1 on survival of sugar cane calli following anaerobic stress was assessed. For this purpose, sugar cane calli were incubated for 48 hours under anoxic conditions and then were transferred under aerobic conditions at a nutrient medium containing 10 nM SkQ1or no SkQ1 (control).

stem tomato explants = assay: Formation of shoots and roots from stem tomato explants; assay type: cell-based; conditions: 10 nM SkQ1, 10 days
Method: (§2) Effect of SkQ1 on formation shoots and roots from leaf potato explants and stem tomato explants was investigated. Explants were incubated for 10 days in the presence of 10 nM SkQ1 or with no SkQ1.

maize callus = assay: Morphogenetic processes in maize callus; assay type: cell-based
Method: as §1
Dose-dependent effect of SkQ1 on morphogenetic processes in maize callus was shown. […] Variations in green weight resulted mainly from amount of formed roots.

leaf potato explants = assay: Formation of shoots and roots from leaf potato explants; assay type: cell-based; conditions: 10 nM SkQ1, 10 days
Method: as §2

sugar cane calli [2] = assay: Shoot formation and plant regeneration from sugar cane calli; assay type: cell-based
Method: as §1
At the same time, development of shoots of calli transferred onto regeneration medium from medium without SkQ1 has been at the very initial stage.
To produce normal plants, sugar cane shoots formed by 10 nM SkQ1 were transferred onto rootage agarized medium containing the same optimum SkQ1 concentration (10 nM). After root formation, the plants were transferred into water medium and then displanted into the ground. Estimation of the plant state was performed at every stage.

[3] = 1-10 nM SkQ1, one month of cultivation

## O=[N+]([O-])[O-].[Ag+] [silver nitrate]
Maize callus cultures
  frequency of embryogenic callus formation: stimulated embryogenic callus formation

## O=C(O)[C@@H]1CCCN1 [proline]
Maize embryogenic callus; 20 mM proline, 2.8 without
  number of regenerants per explant: 7.6
Maize embryogenic callus; 400 mg/L proline in medium
  increase of frequency of embryogenic callus formation and plant regeneration: 2-3 fold

## C1=CC2C=CC1C2 [norbornadiene]
Maize callus cultures
  frequency of embryogenic callus formation: stimulated embryogenic callus formation

## CC1=CC(=O)CC(C)(C)[C@@]1(O)/C=C/C(C)=C\C(=O)O [abscisic acid]
Isolated embryos
  embryogenic callus formation: stimulated embryogenic callus formation

## xyloglucan pentasaccharide
Wheat tussue culture
  enhancement of morphogenesis: 1.5-2 fold

## NC1(C(=O)O)CC1 [1-aminocyclopropane-1-carboxylic acid]
Maize callus cultures
  decrease of a number of produced regenerants: 68%
  frequency of embryogenic callus formation: significant reduction

## CC1=C(C)C(=O)C(CCCCCCCCCC[P+](c2ccccc2)(c2ccccc2)c2ccccc2)=CC1=O.[Br-] [SkQ1]
Tobacco leaf explants; darkness, 5 weeks, controls showed no root formation
  root formation from callus tissues: secondary differentiation of callus tissues with root formation; also recorded: stimulates root formation
Tobacco leaf explants; newly formed root tissues did well
  state of differentiated explant tissues on further incubation: necrotized and died
Rice seeds; 1 nM SkQ1 in water
  germination of rice seeds under water: enhance significantly germination; also recorded: dramatically enhances germination
Rice seeds; SkQ1 at concentrations higher than 1 nM (3, 10, 30 nM)
  germination of rice seeds under water: does not reveal such a stimulating effect
Lucerne calli; 0-10 nM SkQ1, 1 month
  callus growth (weight change): does not affect significantly callus growth
Lucerne calli; 5 nM SkQ1, 1 month
  stimulation of regeneration (formation of calli with green areas): 2.5-3 fold
Lucerne calli; SkQ1 concentrations higher than 5 nM
  stimulation of regeneration: positive effect eliminates
Sugar cane calli [1]
  capability for morphogenesis after anaerobic stress: retain capability for morphogenesis
  survival of calli following anaerobic stress: markedly higher capability for survival; also recorded: enhances resistance
Stem tomato explants
  formation of shoots and roots: significantly enhances formation of both shoots and roots
Maize callus; 0-50 nM SkQ1
  callus accretion (green weight): did not affect essentially callus accretion
Maize callus; 1-10 nM SkQ1
  amount of rhizogenic calli: No reliable increase
  average number of roots per callus: increased significantly
Maize callus; [3]
  average number of shoots per callus: increase of an average number of shoots per callus
  inoculum fraction that forms shoots: increase of inoculum fraction that forms shoots
Maize callus; SkQ1 at 20 nM and higher, shoot formation affected more than rhizogenesis
  morphogenesis: inhibited morphogenesis
Maize callus; high SkQ1 concentrations
  growth oppression: No reliable growth oppression
Maize callus; repeated cultivation, same medium composition
  rhizogenesis on repeated callus cultivation: even more pronounced amplification of rhizogenesis
Leaf potato explants
  formation of shoots and roots: significantly enhances formation of both shoots and roots
Sugar cane calli [2]; 10 nM SkQ1, control calli showed no shoot formation
  onset of formation of shoots from calli: 19 day of incubation
Sugar cane calli [2]; 10 nM SkQ1, rootage medium, then water medium and ground
  rooting of shoots and production of plants: take roots properly and give normal viable plants
Sugar cane calli [2]; 10 nM SkQ1 in regeneration medium
  development of formed shoots on agarized regeneration medium: continued to develop normally
Sugar cane calli [2]; 100 nM SkQ1 in regeneration medium
  development of shoots on regeneration medium: termination of further development of shoots
Sugar cane calli [2]; 1000 nM SkQ1 in regeneration medium
  development of shoots on regeneration medium: destruction of shoots
Sugar cane calli [2]; FIG. 1
  shoot formation from undifferentiated tissue of sugar cane: stimulates shoot formation
Sugar cane calli [2]; formed and further cultivated at 100 nM or 1000 nM SkQ1
  viability of shoots: nonviable and died
Sugar cane calli [2]; higher SkQ1 concentrations (above 10 nM)
  onset of shoot formation from calli: > 31 days
Sugar cane calli [2]; higher SkQ1 concentrations, compared with 10 nM
  amount of calli with shoot formation: in lesser amount of calli
